Source: patent US20100221763A1, “Specific Acceptors for Transferases to Saccharides and Method for Obtaining and Using Same” (Health Research, Inc, priority 2005, published 2010)

Legend:
[1] = test system: β-GlcNAc:β1,4GalNAc-T of colon tumor CC9338; test: β-GlcNAc:β1,4GalNAc-T assay, colon tumor extract; assay type: biochemical, human; conditions: for b) β-GlcNAc:β1,4GalNAc-T activity: incorporation of radioactive sugar: other acceptors, 1 mg protein of the tissue extract
Method: (§1) Colon tumor tissue (CC9338) and breast tumor tissue (BC9400) were obtained during surgical procedures at Roswell Park Cancer Institute and stored frozen within 1 h at −70° C. The tissues were homogenized at 4° C. with 4 volumes of 0.1M Tris Maleate […] 0.1% NaN3 using kinematica. After adjusting the concentration of Triton X-100 to 2%, these homogenates were mixed in the cold room for 1 h using Speci-Mix (Thermolyne) and then centrifuged at 20,000 g for 1 h at 4° C. The clear fat-free supernatant was stored frozen at −20° C. until use. Aliquots of 10 μL from this extract were used in assays run in duplicates. Glycosyltransferase activity in cell lysate was determined by mixing the lysates with acceptor and radiolabeled donor (monosaccharide) under the reaction conditions detailed below, followed by separation of un-reacted donor from the radioactive product using anionic or hydrophobic chromatography. In all cases, the radioactive content of isolated products was determined by using 3a70 scintillation cocktail (Research Products International, Mount Prospect, Ill.) and a Beckman LS6500 scintillation counter. Controls for each assay contained the reaction mixture with everything except the acceptor. All assays were run in duplicate.
(§2) The acceptors used for measuring the glycosyltransferase and sulfotransferase activities are given in Table I. The following are the conditions for individual enzymatic assays. Reaction temperature in all cases was 37° C. α2,3- and α2,6 sialytransferase (ST) assay reactions proceeded for 2 h in a mixture containing 100 mM sodium cacodylate buffer (pH 6.0), 7.5 mM acceptor, CMP-[9-^3H]NeuAc (typically 0.2 μCi) and 10 μl cell extract in a total volume of 20 μl [Chandrasekaran et al., 1995]. βGlcNAc:β1,4Gal-T and αGalNAc:β1,3Gal-T assay mixtures in duplicate contained 0.1M Hepes-NaOH pH 7.0, 7 mM ATP, 20 mM Mn acetate, 1 mM UDP-Gal, UDP [^14C]Gal (0.05 μCi; 327mCi/mmol; Amersham), 0.5 mM acceptor (unless otherwise stated) and the enzyme in a total volume of 20 μL. It was incubated for 4 h [Chandrasekaran et al., 2001]. βGlcNAc:β1,4GalNAc-T assay mixtures in duplicate contained 0.1M Hepes-NaOH pH 7.0, 7 mM ATP, 20 mM Mn acetate. UDP [^3H] GalNAc (0.20 μCi; 7.8 Ci/mmol: New England Nuclear Corp.) 7.5 mM acceptor (unless otherwise stated) and the enzyme in a total volume of 20 μL and incubated for 4 h [Chandrasekaran et al., 2001].
(§3) Dowex-1-C1 or Sep-Pak C18 cartridges were used to isolate radiolabeled product from the reaction mixture. For GalT, GalNAc-T and FT assays, the incubation mixture was diluted with 1 ml water and passed through a 1 ml Dowex-1-C1 column [Chandrasekaran et al., 1996; Chandrasekaran et al., 2001]. The column was washed twice with 1 ml of water. The breakthrough and the water wash contained the [^14C]-galactosylated or [^14C]-fucosylated products formed with neutral acceptors. 3 ml of 0.1M NaCl was used to obtain [^14C]-fucosylated products from sialylated acceptors after water elution. For sialytransferase assays, the radioactive products from benzylglycosides were separated by hydrophobic chromatography on Sep-Pak C18 cartridge (Waters, Milford, Mass.), and elution of the product was done with 3 ml methanol [Palcic et al., 1988]. For sulfotransferase assays, elution of the [^35S]-sulfated compound from Dowex-1-C1 column was achieved by 3 ml of 0.2M NaCl [Chandrasekaran et al., 2004].

[2] = test system: β-GlcNAc:β1,4Gal-T of colon tumor CC9338; test: β-GlcNAc:β1,4Gal-T assay, colon tumor extract; assay type: biochemical, human; conditions: for a) β-GlcNAc:β1,4Gal-T activity: incorporation of radioactive sugar: other acceptors, 1 mg protein of the tissue extract
Method: as §1, §2, §3

[3] = test system: β-GlcNAc:β1,4GalNAc-T of breast tumor BC9400; test: β-GlcNAc:β1,4GalNAc-T assay, breast tumor extract; assay type: biochemical, human; conditions: for b) β-GlcNAc:β1,4GalNAc-T activity: incorporation of radioactive sugar: other acceptors, 1 mg protein of the tissue extract
Method: as §1, §2, §3

[4] = test system: β-GlcNAc:β1,4Gal-T of breast tumor BC9400; test: β-GlcNAc:β1,4Gal-T assay, breast tumor extract; assay type: biochemical, human; conditions: for a) β-GlcNAc:β1,4Gal-T activity: incorporation of radioactive sugar: other acceptors, 1 mg protein of the tissue extract
Method: as §1, §2, §3

Siglec 4 (MAG) = conditions: Blixt et al. (49); cited from earlier work
[5] = relative to Gal-T activity with the same acceptor
[6] = Gal-T activity with the same acceptor = 100.0%

Row | SMILES | b) β-GlcNAc:β1,4GalNAc-T activity: incorporation of radioactive sugar [1] [CPM × 10^−3] | a) β-GlcNAc:β1,4Gal-T activity: incorporation of radioactive sugar [2] [CPM × 10^−3] | b) β-GlcNAc:β1,4GalNAc-T activity: incorporation of radioactive sugar [3] [CPM × 10^−3] | a) β-GlcNAc:β1,4Gal-T activity: incorporation of radioactive sugar [4] [CPM × 10^−3] | fold more potent than NeuAcα2,6GalNAcα-O-Thr in inhibiting Siglec 4 (MAG) binding (Siglec 4 (MAG)) [fold] | b) β-GlcNAc:β1,4GalNAc-T activity, percent in parentheses [1, 5] [%] | a) β-GlcNAc:β1,4Gal-T activity, percent in parentheses [2, 6] [%] | b) β-GlcNAc:β1,4GalNAc-T activity, percent in parentheses [3, 5] [%] | a) β-GlcNAc:β1,4Gal-T activity, percent in parentheses [4, 6] [%]
1 | CO[C@@H]1O[C@H](CO)[C@H](O)[C@H](O[C@@H]2O[C@H](CO)[C@@H](O)[C@H](O)[C@H]2NC(C)=O)[C@H]1O [GlcNAcβ1,3Galβ-O-Me] | 20.9 | 247.9 | 60.9 | 338.5 |  |  |  |  | 
2 | CC(=O)NC1C(O)CC(OC2C(O)C(CO)OC(OC3C(O)C(CO)OC(OC(C)C(N)C(=O)O)C3NC(C)=O)C2O)(C(=O)O)OC1C(O)C(O)CO (centres unmarked) [NeuAcα2,3Galβ1,3GalNAcα-O-Thr] |  |  |  |  | 600 |  |  |  | 
3 | C=CCO[C@H]1O[C@H](CO[C@@H]2O[C@H](CO)[C@@H](O)[C@H](O)[C@H]2NC(C)=O)[C@@H](O)[C@H](O)[C@@H]1O [GlcNAcβ1,6Manα-O—Al] | 54.5 | 493.4 | 99.2 | 443.6 |  | 11.0 | 100.0 | 22.4 | 100.0
4 | C=CCO[C@@H]1O[C@H](CO[C@@H]2O[C@H](CO)[C@@H](O)[C@H](O)[C@@H]2O[C@@H]2O[C@H](CO)[C@@H](O)[C@H](O)[C@H]2NC(C)=O)[C@@H](O)[C@H](O)[C@H]1O [GlcNAcβ1,2Manβ1,6Glcβ-O—Al] | 25.6 | 277.7 | 57.9 | 70.5 |  |  |  |  | 
